# Test system: Mycobacterium tuberculosis H37Rv strains
# Test: In vitro assay for antimicrobial susceptibility (microplate Alamar blue MIC)
# Type: cell-based
# Conditions: Mycobacterium tuberculosis, H37RV, 7H9, Alamar blue, inhibition ≧90%; read-out: MIC (μg/mL) against H37Rv
row,SMILES,MIC [µg/mL]
1,CC(C)/N=c1\cc2n(-c3ccc(Cl)cc3)c3ccccc3nc-2cc1Nc1cnccn1 [TBI-1077],< 0.0075
2,"CC(C)/N=c1\cc2n(-c3ccc(F)cc3)c3ccccc3nc-2cc1Nc1ncccn1 [TBI-1053, 5-(4-Fluorophenyl)-3-(1-methylethyl)imino-2-(pyrimidin-2-yl)amino-3,5-dihydrophenazine]",0.015

# Same assay, conditions: Mycobacterium tuberculosis, H37RV, in vitro, Mycobacterium tuberculosis H37Rv strains; read-out: MIC (μg/mL) against H37Rv
row,SMILES,MIC [µg/mL]
1,"COC1CCC(/N=c2\cc3n(-c4ccc(OC(F)(F)F)cc4)c4ccccc4nc-3cc2Nc2cccnc2)CC1 (centres unmarked) [TBI-162, 5-(4-Trifluoromethoxyphenyl)-3-(4-methoxycyclohexyl)imino-2-(3-pyridyl)amino-3,5-dihydrophenazine]",0.03
2,"Cc1cncc(Nc2cc3nc4ccccc4n(-c4ccc(F)cc4)c-3c/c2=N\C2CCCCC2)c1 [TBI-1029, 5-(4-Fluorophenyl)-3-cyclohexylimino-2-(5-methyl-3-pyridyl)amino-3,5-dihydrophenazine]",0.027
3,"COc1ccc(Nc2cc3nc4ccccc4n(-c4ccc(C)cc4)c-3c/c2=N\C2CCCCC2)cn1 [TBI-357, 5-(4-Methylphenyl)-3-cyclohexylimino-2-(6-methoxy-3-pyridyl)amino-3,5-dihydrophenazine]",0.228
4,"FC(F)(F)Oc1ccc(-n2c3c/c(=N\C4CCN(C5CCCC5)CC4)c(Nc4cccnc4)cc-3nc3ccccc32)cc1 [TBI-163, 5-(4-Trifluoromethoxyphenyl)-3-(N-cyclopentyl-4-piperidyl)imino-2-(3-pyridyl)amino-3,5-dihydrophenazine]",0.06
5,"COc1ccc(Nc2cc3nc4ccccc4n(-c4ccc(C)cc4)c-3c/c2=N\C2CCC(OC)CC2)cn1 (centres unmarked) [TBI-358, 5-(4-Methylphenyl)-3-(4-methoxycyclohexyl)imino-2-(6-methoxy-3-pyrid)amino-3,5-dihydrophenazine]",0.202
6,COc1ncccc1Nc1cc2nc3ccc(F)cc3n(-c3ccc(Cl)cc3)c-2c/c1=N\C1CCOCC1 [TBI-928],0.5
7,"Cc1ccc(Nc2cc3nc4ccccc4n(-c4ccc(C(F)(F)F)cc4)c-3c/c2=N\C2CCCCC2)cn1 [TBI-717, 5-(4-Trifluoromethylphenyl)-3-cyclohexylimino-2-(6-methyl-3-pyridyl)amino-3,5-dihydrophenazine]",0.015
8,"Cc1cncc(Nc2cc3nc4ccccc4n(-c4ccccc4)c-3c/c2=N\C(C)C)c1 [TBI-081, 5-Phenyl-3-(1-methylethyl)imino-2-(5-methyl-3-pyridyl)amino-3,5-dihydrophenazine]",0.117
9,"COc1ncccc1Nc1cc2nc3ccccc3n(-c3ccc(C)cc3)c-2c/c1=N\C(C)C [TBI-308, 5-(4-Methylphenyl)-3-(1-methylethyl)imino-2-(2-methoxy-3-pyridyl)amino-3,5-dihydrophenazine]",0.125
10,"Cc1cncc(Nc2cc3nc4ccccc4n(-c4ccc(C(F)(F)F)cc4)c-3c/c2=N\C2CC2)c1 [TBI-725, 5-(4-Trifluoromethylphenyl)-3-cyclopropylimino-2-(5-methyl-3-pyridyl)amino-3,5-dihydrophenazine]",0.031
11,"COC1CCC(/N=c2\cc3n(-c4ccc(Cl)cc4)c4ccccc4nc-3cc2Nc2cccnc2C)CC1 (centres unmarked) [TBI-453, 5-(4-Chlorophenyl)-3-(4-methoxycyclohexyl)imino-2-(2-methyl-3-pyridyl)amino-3,5-dihydrophenazine]",0.011
12,"COc1ncccc1Nc1cc2nc3ccccc3n(-c3ccc(OC(F)(F)F)cc3)c-2c/c1=N\C1CCN(CC(C)C)CC1 [TBI-165, 5-(4-Trifluoromethoxyphenyl)-3-(N-isobutyl-4-piperidyl)imino-2-(2-methoxy-3-pyridyl)amino-3,5-dihydrophenazine]",0.016
13,"COCC(COC)/N=c1\cc2n(-c3ccc(F)cc3)c3ccccc3nc-2cc1Nc1cccnc1OC [TBI-1048, 5-(4-Fluorophenyl)-3-(1,3-dimethoxyisopropyl)imino-2-(2-methoxy-3-pyridyl)amino-3,5-dihydrophenazine]",0.226
14,"c1ccc(-n2c3c/c(=N\C4CCOCC4)c(Nc4cccnc4)cc-3nc3ccccc32)cc1 [TBI-058, 5-Phenyl-3-(4-tetrahydropyranyl)imino-2-(3-pyridyl)amino-3,5-dihydrophenazine]",0.06
15,COC1CCC(/N=c2\cc3n(-c4ccccc4)c4ccccc4nc-3cc2Nc2cccnc2C)CC1 (centres unmarked) [TBI-076],0.042
16,CN1CCC(/N=c2\cc3n(-c4ccc(F)cc4)c4ccccc4nc-3cc2Nc2cccnc2)CC1 [TBI-682],0.25
17,"COCC(COC)/N=c1\cc2n(-c3ccc(C)cc3)c3ccccc3nc-2cc1Nc1cccnc1OC [TBI-373, 5-(4-Methylphenyl)-3-(1,3-dimethoxyisopropyl)imino-2-(2-methoxy-3-pyridyl)amino-3,5-dihydrophenazine]",0.125
18,"CC(=O)Nc1ccc(Nc2cc3nc4ccccc4n(-c4ccc(F)cc4)c-3c/c2=N\[C@H]2CC[C@H](O)CC2)cn1 [TBI-917, 5-(4-Fluorophenyl)-3-(1′,4′-trans-4-hydroxycyclohexyl)imino-2-(6-acetamino-3-pyridyl)amino-3,5-dihydrophenazine]",1

row,SMILES,MIC [µg/mL]
1,"COc1ccc(Nc2cc3nc4ccccc4n(-c4ccc(F)cc4)c-3c/c2=N\C2CCOCC2)cn1 [TBI-935, 5-(4-Fluorophenyl)-3-(4-tetrahydropyranyl)imino-2-(6-methoxy-3-pyridyl)amino-3,5-dihydrophenazine]",0.205
2,"COC1CCC(/N=c2\cc3n(-c4ccc(C(F)(F)F)cc4)c4ccccc4nc-3cc2Nc2ccc(C)nc2)CC1 (centres unmarked) [TBI-695, 5-(4-Trifluoromethylphenyl)-3-(4-methoxycyclohexyl)imino-2-(6-methyl-3-pyridyl)amino-3,5-dihydrophenazine]",0.016
3,"COc1ncccc1Nc1cc2nc3ccccc3n(-c3ccccc3OC(F)(F)F)c-2c/c1=N\C(C)C [TBI-1046, 5-(2-Trifluoromethoxyphenyl)-3-(1-methylethyl)imino-2-(2-methoxy-3-pyridyl)amino-3,5-dihydrophenazine]",0.44
4,"COc1ncccc1Nc1cc2nc3ccccc3n(-c3cccc(OC(F)(F)F)c3)c-2c/c1=N\C1CCCCC1 [TBI-1040, 5-(3-Trifluoromethoxyphenyl)-3-cyclohexylimino-2-(2-methoxy-3-pyridyl)amino-3,5-dihydrophenazine]",0.086
5,"Cc1cncc(Nc2cc3nc4ccccc4n(-c4ccc(C(F)(F)F)cc4)c-3c/c2=N\C(C)C)c1 [TBI-721, 5-(4-Trifluoromethylphenyl)-3-(1-methylethyl)imino-2-(5-methyl-3-pyridyl)amino-3,5-dihydrophenazine]",0.082
6,"COc1ncccc1Nc1cc2nc3ccccc3n(-c3ccc(C)cc3)c-2c/c1=N\C1CCC1 [TBI-344, 5-(4-Methylphenyl)-3-cyclobutylimino-2-(2-methoxy-3-pyridyl)amino-3,5-dihydrophenazine]",0.04
7,"Cc1ccc(-n2c3c/c(=N\C4CCN(C)CC4)c(Nc4cccnc4C)cc-3nc3ccccc32)cc1 [TBI-326, 5-(4-Methylphenyl)-3-(N-methyl-4-piperidyl)imino-2-(2-methyl-3-pyridyl)amino-3,5-dihydrophenazine]",0.1
8,"CC(=O)Nc1ccc(Nc2cc3nc4ccccc4n(-c4ccc(C(F)(F)F)cc4)c-3c/c2=N\C(C)C)cn1 [TBI-711, 5-(4-Trifluoromethylphenyl)-3-(1-methylethyl)imino-2-(6-acetamino-3-pyridyl)amino-3,5-dihydrophenazine]",0.11
9,"COc1ncccc1Nc1cc2nc3cc(F)ccc3n(-c3ccc(Cl)c(Cl)c3)c-2c/c1=N\C1CCOCC1 [TBI-877, 8-Fluoro-5-(3,4-dichlorophenyl)-3-(4-tetrahydropyranyl)imino-2-(2-methoxy-3-pyridyl)amino-3,5-dihydrophenazine]",0.091
10,"Clc1ccc(-n2c3c/c(=N\C4CCCCC4)c(Nc4cccnc4)cc-3nc3ccccc32)cc1Cl [TBI-350, 5-(3,4-Dichlorophenyl)-3-cyclohexylimino-2-(3-pyridyl)amino-3,5-dihydrophenazine]",0.031
11,"Cc1ccc(-n2c3c/c(=N\C4CCC(O)CC4)c(Nc4cccnc4C)cc-3nc3ccccc32)cc1 (centres unmarked) [TBI-335, 5-(4-Methylphenyl)-3-(4-hydroxycyclohexyl)imino-2-(2-methyl-3-pyridyl)amino-3,5-dihydrophenazine]",0.336
12,"COc1ncccc1Nc1cc2nc3ccccc3n(-c3cccc(OC(F)(F)F)c3)c-2c/c1=N\C(C)C [TBI-1038, 5-(3-Trifluoromethoxyphenylethylethyl)imino-2-(2-methoxy-3-pyridyl)amino-3,5-dihydrophenazine]",0.118
13,"COc1ncccc1Nc1cc2nc3ccccc3n(-c3ccccc3)c-2c/c1=N\C1CCN(C)CC1 [TBI-062, 5-Phenyl-3-(N-methyl-4-piperidyl)imino-2-(2-methoxy-3-pyridyl)amino-3,5-dihydrophenazine]",0.061
14,"Cc1ncccc1Nc1cc2nc3ccccc3n(-c3ccc(Br)cc3)c-2c/c1=N\C(C)C [TBI-507, 5-(4-Bromophenyl)-3-(1-methylethyl)imino-2-(2-methyl-3-pyridyl)amino-3,5-dihydrophenazine]",0.062
15,"Cc1ccc(Nc2cc3nc4cc(F)ccc4n(-c4ccc(OC(F)(F)F)cc4)c-3c/c2=N\C(C)C)cn1 [TBI-863, 8-Fluoro-5-(4-trifluoromethoxyphenyl)-3-(1-methylethyl)imino-2-(6-methyl-3-pyridyl)amino-3,5-dihydrophenazine]",0.061
16,"COc1ncccc1Nc1cc2nc3cc(F)ccc3n(-c3ccc(Cl)cc3)c-2c/c1=N\C1CCC(OC)CC1 (centres unmarked) [TBI-936, 8-Fluoro-5-(4-chlorophenyl)-3-(4-methoxycyclohexyl)imino-2-(2-methoxy-3-pyridyl)amino-3,5-dihydrophenazine]",0.06
17,"CSc1cccc(-n2c3c/c(=N\C(C)C)c(Nc4cccnc4)cc-3nc3ccccc32)c1 [TBI-454, 5-(3-Methylthiophenyl)-3-(1-methylethyl)imino-2-(3-pyridyl)amino-3,5-dihydrophenazine]",0.213
18,"COc1ncccc1Nc1cc2nc3ccccc3n(-c3ccc(OC(F)(F)F)cc3)c-2c/c1=N\C(C)C [TBI-164, 5-(4-Trifluoromethoxyphenyl)-3-(1-methylethyl)imino-2-(2-methoxy-3-pyridyl)amino-3,5-dihydrophenazine]",0.028

# Source: patent publication US8716292B2, “Riminophenazines with 2-(heteroaryl)amino substituents and their anti-microbial activity” (priority 2010, dated 2014)
